From PubChem BioAssay (NCI)
Several values for one entry are separate records, joined by “and”; a condition that tells them apart may be missing. Identical values can stand only once.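 Tested at 5 concentrations; 48 h exposure; 96-well plates; endpoints linearly interpolated, else capped at highest concentration. The concentration for 50% growth inhibition is given as GI50. Definition used: TGI = concentration required for complete inhibition of growth.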

What was measured:
Experiment in all cases: DTP human tumour cell line panel, 48 h
[1] = system: OVCAR-8 ovarian
[2] = system: A549 NSCLC
[3] = system: UACC-257 melanoma
[4] = system: LXFL 529 NSCLC
[5] = system: M19-MEL melanoma
[6] = system: BT-549 breast
[7] = system: U251 CNS
[8] = system: MCF7 breast
[9] = system: NCI-H226 lung
[10] = system: NCI-H522 lung

Row | SMILES | GI50 [1] | TGI [1] | GI50 [2] | GI50 [3] | TGI [3] | GI50 [4] | TGI [4] | GI50 [5] | GI50 [6] | TGI [6] | GI50 [7] | GI50 [8] | GI50 [9] | TGI [9] | GI50 [10] | TGI [10] | TGI [2] | TGI [5] | TGI [7]
1 | O=C1N[C@H]2[C@H](O)[C@H](O)[C@@H](O)[C@H](O)[C@@H]2c2cc3c(c(O)c21)OCO3 | 231 nM and 225 nM | 1890 nM and 195 nM | 407 nM and 3510 nM | 314 nM and 339 nM | 2400 nM and 334 nM | 248 nM | 4130 nM | 276 nM and 463 nM | 18.7 nM | 68.4 nM and 142 nM | 156 nM and 187 nM | 20.8 nM | 273 nM and 365 nM | 1590 nM and 195 nM | 143 nM | 886 nM and 141 nM | – | – | –
2 | O=C1c2c(c3c4ccccc4[nH]c3c3[nH]c4ccccc4c23)C(=O)N1Cc1ccccc1 | – | 13800 nM | – | – | 13300 nM | – | 11400 nM | – | – | – | – | – | – | 6100 nM | – | 4720 nM | 13500 nM | 12900 nM | 6340 nM
3 | CCOP(=O)(CC(=O)C1=C(O)C(CCCCNC(=O)OC(C)(C)C)N(Cc2ccccc2)C1=O)OCC (stereo not drawn) | – | > 100000 nM | – | – | > 100000 nM | – | > 100000 nM | – | – | – | – | – | – | > 100000 nM | – | > 100000 nM | > 100000 nM | > 100000 nM | > 100000 nM
4 | COc1cc2ccc(CC(N)=O)cc2cc1OC | – | > 100000 nM | – | – | > 100000 nM | – | > 100000 nM | – | – | – | – | – | – | > 100000 nM | – | > 100000 nM | > 100000 nM | > 100000 nM | > 100000 nM
5 | Cc1ccc(S(=O)(=O)SCc2ccccc2)cc1 | – | 33400 nM | – | – | > 94200 nM | – | 47400 nM | – | – | – | – | – | – | 40900 nM | – | 20900 nM | > 100000 nM | > 77400 nM | 58800 nM
